Reference: patent publication US11083805B2, “Radiolabeled GRPR-antagonists for diagnostic imaging and treatment of GRPR-positive cancer” (Advanced Accelerator Applications International SA, priority 2012, dated 2021)

Key:
[1] = Metabolic study in mice (radiochromatogram of ex-vivo mouse blood); parameters: species or system Swiss albino mice; settings: mouse blood 5 min after injection
Protocol: A bolus containing the radioligand in normal saline (100-150 μL, =3 nmol, 200-500 μCi) was injected in the tail vein of Swiss albino mice. Animals were kept for 5 min in a cage with access to water and were then euthanized promptly by cardiac puncture while under a mild ether anesthesia. Blood (500-900 μL) was collected from the heart with a syringe and transferred in a pre-chilled Eppendorf tube on ice.
Blood was centrifuged to remove blood cells (10 min, 2000 g/4° C.). The plasma was collected, mixed with acetonitrile (MeCN) in a 1/1 v/v ratio and centrifuged again (10 min, 15000 g/4° C.). Supernatants were concentrated to a small volume (gentle N2-flux at 40° C.), diluted with saline (z 400 μL) and filtered through a Millex GV filter (0.22 μm).
Aliquots of plasma samples (prepared as described above) were loaded on a Symmetry Shield RPM column which was eluted at a flow rate of 1.0 mL/min with the following gradient: 100% A to 90% A in 10 min and from 90% A to 60% for the next 60 min (A=0.1% aqueous TFA (v/v) and B=MeCN). Elution of radiocomponents was monitored by a gamma detector. For ^99mTc-radiopeptides, ITLC-SG analysis was performed in parallel using acetone as the eluent to detect traces of TcO4^− release (TcO4^− Rf=1.0).

[2] = test system: PC-3 tumors (hGRPR+); assay: Biodistribution in GRPR+ tumor bearing mice; assay type: in vivo, female SCID mice; settings: for uptake in PC-3 tumor: iv, 10 pmol total peptide
Protocol: A 150 μL bolus containing a suspension of 1.5×10^7 freshly harvested human PC-3 cells in normal saline was subcutaneously injected in the flanks of female SCID mice. The animals were kept under aseptic conditions and 2-3 weeks later developed well-palpable tumors at the inoculation site (80-150 mg).
On the day of the experiment, the selected radiopeptide was injected in the tail vein of tumor-bearing mice as a 100 μL bolus (1-2 μCi, 10 pmol total peptide; in saline/EtOH 9/1 v/v). Animals were sacrificed in groups of four under a mild ether anesthesia by cardiac puncture at predetermined time points pi (postinjection). Additional sets of three to four animals were co-injected with excess [Tyr^4]BBN (≈40 nmol) along with test radiopeptide and were sacrificed at 4 h pi (blocked animals). Samples of blood and tissues of interest were immediately collected, weighed and measured for radioactivity in a γ-counter. Stomach and intestines were not emptied of their contents, but measured as collected. Biodistribution data were calculated as percent injected dose per gram tissue (% ID/g) using the Microsoft Excel program with the aid of suitable standards of the injected dose.

[3] = test system: malignant lesions; settings: cited from earlier work
[4] = test system: human prostate cancer PC-3 xenografts; settings: cited from earlier work

Compound: CC(C)CC(CC(C)C)NC(=O)[C@H](Cc1cnc[nH]1)NC(=O)CNC(=O)[C@@H](NC(=O)[C@H](C)NC(=O)[C@H](Cc1c[nH]c2ccccc12)NC(=O)[C@H](CCC(N)=O)NC(=O)[C@@H](Cc1ccccc1)NC(=O)COCC(=O)Nc1ccc(CNC(=O)CN2CCN(CC(=O)O)CCN(CC(=O)O)CCN(CC(=O)O)CC2)cc1)C(C)C [[177Lu]NeoBOMB-1] [^177Lu-DOTA-(p-aminobenzylamine-diglycolic acid)-[DPhe^6,His^12-CO—NH—CH[(CH2CH(CH3)2]2,des-Leu^13,des-Met^14]BBN(6-14), metal not drawn]
- percentage of parent peptide remaining intact [1]: > 92%
- tumor-to-pancreas ratios over time ([2]; 4, 24 and 72 h pi, especially at 72 h pi): increasingly higher tumor-to-pancreas ratios

Compound: CC(C)CC(CC(C)C)NC(=O)[C@H](Cc1cnc[nH]1)NC(=O)CNC(=O)[C@@H](NC(=O)[C@H](C)NC(=O)[C@H](Cc1c[nH]c2ccccc12)NC(=O)[C@H](CCC(N)=O)NC(=O)[C@@H](Cc1ccccc1)NC(=O)COCC(=O)Nc1ccc(CNC(=O)CN2CCN(CC(=O)O)CCN(CC(=O)O)CCN(CC(=O)O)CC2)cc1)C(C)C [[111In]NeoBOMB-1] [^111In-DOTA-(p-aminobenzylamine-diglycolic acid)-[DPhe^6,His^12-CO—NH—CH[(CH2CH(CH3)2)2,des-Leu^13,des-Met^14]BBN(6-14), metal not drawn]
- percentage of parent peptide remaining intact [1]: > 91%
- tumor uptake after co-injection of excess [Tyr4]BBN (in vivo receptor blockade) ([2]; 4 h pi, excess [Tyr4]BBN (100 μg)): significantly reduced
- uptake in PC-3 tumor ([2]; 4 h pi): 28.6±6.0 % ID/g
- uptake in PC-3 tumor ([2]; 24 h pi): 25.9±6.6 % ID/g

Compound: CC(C)CC(CC(C)C)NC(=O)[C@H](Cc1cnc[nH]1)NC(=O)CNC(=O)[C@@H](NC(=O)[C@H](C)NC(=O)[C@H](Cc1c[nH]c2ccccc12)NC(=O)[C@H](CCC(N)=O)NC(=O)[C@@H](Cc1ccccc1)NC(=O)COCC(=O)Nc1ccc(CNC(=O)CN2CCN(CC(=O)O)CCN(CC(=O)O)CCN(CC(=O)O)CC2)cc1)C(C)C [[67Ga]NeoBOMB-1] [^67Ga-DOTA-(p-aminobenzylamine-diglycolic acid)-[DPhe^6,His^12-CO—NH—CH[(CH2CH(CH3)2]2,des-Leu^3, des-Met^4]BBN(6-14), metal not drawn]
- percentage of parent peptide remaining intact [1]: > 97%

Compound: [^99mTc—N4′]DPhe-Gln-Trp-Ala-Val-Gly-His-Leu-NHEt [[99mTc]Demobesin 1]
- body and pancreas clearance ([3]; human, in vivo): rapid
- in vivo stability ([3]; human, in vivo): rather good
- tolerability ([3]; human, in vivo): excellent tolerability
- retention in malignant lesions compared to radiolabeled BBN-like agonists ([3]; humans): insufficient retention
- tumor accumulation versus bombesin-based agonists ([99mTc]Demobesin 3-6) ([4]; mice bearing PC-3 xenografts): significantly higher tumor accumulation
- clearance from the body of mice and the pancreas ([4]; mouse, in vivo): cleared very rapidly

Compound: CC(C)CC(CC(C)C)NC(=O)[C@H](Cc1cnc[nH]1)NC(=O)CNC(=O)[C@@H](NC(=O)[C@H](C)NC(=O)[C@H](Cc1c[nH]c2ccccc12)NC(=O)[C@H](CCC(N)=O)NC(=O)[C@@H](Cc1ccccc1)NC(=O)COCC(=O)Nc1ccc(CNC(=O)C2C[N]3CC[NH][Tc]34(=[O])(=[O])[NH]CC[N]4C2)cc1)C(C)C (some centres unmarked) [[99mTc]NeoBOMB-2]
- percentage of parent peptide remaining intact [1]: > 88%
- uptake in PC-3 tumor ([2]; 1 h pi): ~30 % ID/g
- uptake in PC-3 tumor ([2]; 4 h pi): ~30 % ID/g
- uptake in PC-3 tumor ([2]; 24 h pi): > 25 % ID/g
